# According to patent US20200297711A1, “PHARMACEUTICAL COMPOSITION COMPRISING FGFR SELECTIVE TYROSINE KINASE INHIBITOR” (priority 2017, published 2020):
# Marks after values point to notes of the source that are not given here.
# Tests used:
# [1] = system: fibroblast growth factor receptors (FGFRs) 1, 2 and 3; details: reported in PTL 1; cited from earlier work
# [2] = Pharmacokinetics in plasma following single dose and repeated doses of Compound A 1.5 succinate; format: in vivo, human; details: for AUC(0-t) / Cavg / Cmax / Cmin / tmax / tmax, median (minimum − maximum) / AUC(0-inf) / CL/F / t1/2: Compound A
# Protocol: In order to evaluate the PK when administered as a single dose, a single dose of Compound A for each treatment group (at the corresponding dosage for that group) was administered on Day 1. Compound A was administered when fasted, immediately after waking up with at least 10 hours fasting. Taking any meal was prohibited for 2 hours after administration and only drinking water was allowed.
# Cycle 1 was started between 8 and 10 days after dosing in Cycle 0 and Compound A was administered continuously once daily. Compound A was administered at least 2 hours after breakfast, and any food intake was prohibited for 1 hour after administration. However, on Day 8 of Cycle 1, Compound A was administered immediately after waking up while the subject was fasted after at least 10 hours of overnight fasting in order to evaluate the PK. Taking any meals was prohibited for 2 hours after administration and only drinking water was allowed.
# Plasma concentration profile of Compound A following a single dose and repeated doses of Compound A 1.5 succinate are shown in FIG. 1 and FIG. 2, respectively. The profile shown in FIG. 2 is that at steady state.
# (§1) The pharmacokinetic parameters of Compound A following the single dose and repeated doses of Compound A 1.5 succinate are shown in the following table. The pharmacokinetic parameters of Compound A following repeated doses of Compound A 1.5 succinate shown below are those at steady state.
# as §1, with “1.5 succinate updated after obtaining the above data are shown” for “1.5 succinate are shown”
# The pharmacokinetic parameters of Compound B following the single dose and repeated doses of Compound A 1.5 succinate are shown in the following table. The pharmacokinetic parameters of Compound B following repeated doses of Compound A 1.5 succinate shown below are those at steady state.
# [3] = system: stomach cancer, lung cancer, bladder cancer, endometrial cancer, bile duct cancer, breast cancer; details: endometrial cancer (PTL 1), bile duct cancer (PTL 2), breast cancer (PTL 3); cited from earlier work
# [4] = system: FGFR2 gene amplified diffused type gastric cancer; test: Anti-tumor activity, tumor size on CT images, patient; format: in vivo, human; details: 180 mg once daily, one patient, Day 1 of Cycle 3 vs before administration
# Protocol: Compound A was administered once daily at 180 mg to a patient with FGFR2 gene amplified diffused type gastric cancer (poorly differentiated adenocarcinoma). The left image is that before the administration and the right image is that on Day 1 of Cycle 3.
# [5] = system: FGFR2-fusion gene positive intrahepatic cholangiocarcinoma; test: Anti-tumor activity, tumor size, patient; format: in vivo, human; details: 30 mg once daily, one patient, FGFR2-fusion gene positive (78%)
# Protocol: When Compound A was administered once daily at 30 mg to a patient with FGFR2-fusion gene positive (78%) intrahepatic cholangiocarcinoma, the tumor size reduced by about 9%.
# [6] = repeated once-daily doses 30 mg, steady state (n = 2), Table 4
# [7] = repeated once-daily doses 30 mg, steady state (n = 2), Table 5 (updated)
# [8] = repeated once-daily doses 60 mg, steady state (n = 2), Table 4
# [9] = repeated once-daily doses 60 mg, steady state (n = 2), Table 5 (updated)
# [10] = repeated once-daily doses 100 mg, steady state (n = 3), Table 4
# [11] = repeated once-daily doses 100 mg, steady state (n = 3), Table 5 (updated)
# [12] = repeated once-daily doses 140 mg, steady state (n = 3), Table 4
# [13] = repeated once-daily doses 140 mg, steady state (n = 3), Table 5 (updated)
# [14] = repeated once-daily doses 180 mg, steady state (n = 3), Table 4
# [15] = repeated once-daily doses 180 mg, steady state (n = 3), Table 5 (updated)
# [16] = single dose 30 mg (n = 2), Table 4
# [17] = single dose 30 mg (n = 2), Table 5 (updated)
# [18] = single dose 60 mg (n = 3), Table 4
# [19] = single dose 60 mg (n = 3), Table 5 (updated)
# [20] = single dose 100 mg (n = 3), Table 4
# [21] = single dose 100 mg (n = 3), Table 5 (updated)
# [22] = single dose 140 mg (n = 3), Table 4
# [23] = single dose 140 mg (n = 3), Table 5 (updated)
# [24] = single dose 180 mg (n = 3), Table 4
# [25] = single dose 180 mg (n = 3), Table 5 (updated)
smiles,measurement,setting,value
"CNC(=O)n1ccc2cc(Oc3ccnc(NC(=O)c4ccc(C5CCN(CCO)CC5)cc4)c3)c(OCCOC)cc21 [Compound A, 5-((2-(4-(1-(2-hydroxyethyl)piperidin-4-yl)benzamide)pyridin-4-yl)oxy)-6-(2-methoxyethoxy)-N-methyl-1H-indole-1-carboxamide]","inhibitory activity on FGFRs 1, 2 and 3",[1],has an inhibitory activity
same,metabolism in human subjects,[2]; Compound A administered to human subjects,metabolized in the body to produce Compound B
same,AUC(0-t),[2]; [6],158 ng·h/mL
same,Cavg,[2]; [6],6.58 ng/mL
same,Cmax,[2]; [6],13.3 ng/mL
same,Cmin,[2]; [6],2.48 ng/mL
same,tmax,[2]; [6],4 (3-5) h
same,AUC(0-t),[2]; [7],162 ng·h/mL
same,Cavg,[2]; [7],6.75 ng/mL
same,Cmax,[2]; [7],13.3 ng/mL
same,Cmin,[2]; [7],4.50 ng/mL
same,"tmax, median (minimum − maximum)",[2]; [7],3.99 (3.00-4.97) h
same,AUC(0-t),[2]; [8],499^a^ h · ng/mL
same,Cavg,[2]; [8],20.8^a ng/mL
same,Cmax,[2]; [8],50.5^a ng/mL
same,Cmin,[2]; [8],8.28^a ng/mL
same,tmax,[2]; [8],2.5 (2-3)^a h
same,AUC(0-t),[2]; [9],507^a^ h · ng/mL
same,Cavg,[2]; [9],21.1^a ng/mL
same,Cmax,[2]; [9],50.5^a ng/mL
same,Cmin,[2]; [9],11.0^a ng/mL
same,"tmax, median (minimum − maximum)",[2]; [9],2.54 (2.07-3.00) ^a h
same,AUC(0-t),[2]; [10],1330 ± 417 ng·h/mL
same,Cavg,[2]; [10],55.2 ± 17.3 ng/mL
same,Cmax,[2]; [10],116 ± 3.79 ng/mL
same,Cmin,[2]; [10],18.7 ± 7.95 ng/mL
same,tmax,[2]; [10],3 (2-5) h
same,AUC(0-t),[2]; [11],1340 ± 437 ng·h/mL
same,Cavg,[2]; [11],55.91 ± 8.2 ng/mL
same,Cmax,[2]; [11],116 ± 3.79 ng/mL
same,Cmin,[2]; [11],22.3 ± 8.48 ng/mL
same,"tmax, median (minimum − maximum)",[2]; [11],2.97 (2.03-5.00) h
same,AUC(0-t),[2]; [12],4700 ± 3380 ng·h/mL
same,Cavg,[2]; [12],196 ± 141 ng/mL
same,Cmax,[2]; [12],372 ± 173 ng/mL
same,Cmin,[2]; [12],101 ± 94.5 ng/mL
same,tmax,[2]; [12],5 (3-5) h
same,AUC(0-t),[2]; [13],4700 ± 3380 ng·h/mL
same,Cavg,[2]; [13],196 ± 141 ng/mL
same,Cmax,[2]; [13],372 ± 173 ng/mL
same,Cmin,[2]; [13],117 ± 116 ng/mL
same,"tmax, median (minimum − maximum)",[2]; [13],5.00 (2.98-5.08) h
same,AUC(0-t),[2]; [14],3850 ± 777 ng·h/mL
same,Cavg,[2]; [14],161 ± 32.3 ng/mL
same,Cmax,[2]; [14],337 ± 60.3 ng/mL
same,Cmin,[2]; [14],61.4 ± 19.9 ng/mL
same,tmax,[2]; [14],5 (3-5) h
same,AUC(0-t),[2]; [15],3860 ± 764 ng·h/mL
same,Cavg,[2]; [15],161 ± 32.3 ng/mL
same,Cmax,[2]; [15],337 ± 60.3 ng/mL
same,Cmin,[2]; [15],64.8 ± 19.4 ng/mL
same,"tmax, median (minimum − maximum)",[2]; [15],5.00 (3.05-5.08) h
same,AUC(0-inf),[2]; [16],236 ng·h/mL
same,AUC(0-t),[2]; [16],220 ng·h/mL
same,CL/F,[2]; [16],128 L/h
same,Cmax,[2]; [16],28.1 ng/mL
same,t1/2,[2]; [16],22.8 h
same,tmax,[2]; [16],3 (1-5) h
same,AUC(0-inf),[2]; [17],239 ng·h/mL
same,AUC(0-t),[2]; [17],222 ng·h/mL
same,CL/F,[2]; [17],127 L/h
same,Cmax,[2]; [17],28.1 ng/mL
same,t1/2,[2]; [17],22.7 h
same,"tmax, median (minimum − maximum)",[2]; [17],3.04 (0.93-5.15) h
same,AUC(0-inf),[2]; [18],551 ± 240 ng·h/mL
same,AUC(0-t),[2]; [18],529 ± 250 ng·h/mL
same,CL/F,[2]; [18],122 ± 42.5 L/h
same,Cmax,[2]; [18],38.7 ± 4.69 ng/mL
same,t1/2,[2]; [18],23.1 ± 7.65 h
same,tmax,[2]; [18],3 (3-5) h
same,AUC(0-inf),[2]; [19],554 ± 247 ng·h/mL
same,AUC(0-t),[2]; [19],533 ± 257 ng·h/mL
same,CL/F,[2]; [19],121 ± 43.1 L/h
same,Cmax,[2]; [19],38.7 ± 4.69 ng/mL
same,t1/2,[2]; [19],23.1 ± 7.63 h
same,"tmax, median (minimum − maximum)",[2]; [19],3.00 (2.97-4.98)^ h
same,AUC(0-inf),[2]; [20],1120 ± 488 ng·h/mL
same,AUC(0-t),[2]; [20],1090 ± 483 ng·h/mL
same,CL/F,[2]; [20],103 ± 48.9 L/h
same,Cmax,[2]; [20],85.9 ± 30.8 ng/mL
same,t1/2,[2]; [20],15.1 ± 1.77 h
same,tmax,[2]; [20],5 (3-5) h
same,AUC(0-inf),[2]; [21],1120 ± 479 ng·h/mL
same,AUC(0-t),[2]; [21],1080 ± 474 ng·h/mL
same,CL/F,[2]; [21],103 ± 48.2 L/h
same,Cmax,[2]; [21],85.9 ± 30.8 ng/mL
same,t1/2,[2]; [21],15.2 ± 1.84 h
same,"tmax, median (minimum − maximum)",[2]; [21],4.95 (2.97-5.10) h
same,AUC(0-inf),[2]; [22],4000 ± 3340 ng·h/mL
same,AUC(0-t),[2]; [22],3900 ± 3230 ng·h/mL
same,CL/F,[2]; [22],60.4 ± 51.6 L/h
same,Cmax,[2]; [22],227 ± 118.0 ng/mL
same,t1/2,[2]; [22],26.4 ± 12.2 h
same,tmax,[2]; [22],5 (3-5) h
same,AUC(0-inf),[2]; [23],4050 ± 3340 ng·h/mL
same,AUC(0-t),[2]; [23],3960 ± 3230 ng·h/mL
same,CL/F,[2]; [23],59.0 ± 50.2 L/h
same,Cmax,[2]; [23],227 ± 118 ng/mL
same,t1/2,[2]; [23],26.4 ± 12.4 h
same,"tmax, median (minimum − maximum)",[2]; [23],4.88 (3.00-5.08) h
same,AUC(0-inf),[2]; [24],2570 ± 907 ng·h/mL
same,AUC(0-t),[2]; [24],2540 ± 924 ng·h/mL
same,CL/F,[2]; [24],75.0 ± 22.0 L/h
same,Cmax,[2]; [24],154 ± 38.4 ng/mL
same,t1/2,[2]; [24],23.6 ± 10.2 h
same,tmax,[2]; [24],2 (2-5) h
same,AUC(0-inf),[2]; [25],2610 ± 921 ng·h/mL
same,AUC(0-t),[2]; [25],2570 ± 933 ng·h/mL
same,CL/F,[2]; [25],74.2 ± 21.8 L/h
same,Cmax,[2]; [25],154 ± 38.4 ng/mL
same,t1/2,[2]; [25],23.7 ± 10.4 h
same,"tmax, median (minimum − maximum)",[2]; [25],2.12 (1.95-5.00) h
same,cell growth suppressing activity,[3],has a cell growth suppressing activity
same,tumor size,[4],reduced significantly
same,tumor size reduction,[5],about 9%
